Measured values reported in US20250288588A1, “SUBSTITUTED IMIDAZOPYRIDINES AND IMIDAZOPYRIMIDINES, AND USE OF SAME FOR TREATING, AMELIORATING, AND/OR PREVENTING RETINAL DEGENERATION” (Yale University, priority 2022, published 2025).

How the values were obtained:
Type in all cases: cell-based
Human RPE cells [1] = assay: CellTox Green Cytotoxicity Assay; conditions: FIG. 10, 1 μM compound preincubated 24 hours
Experimental: Human RPE cells were preincubated with 1 μM of compound DH381-2 and DH421 for 24 hours. Cell toxicity was measured by CellTox Green Cytotoxicity Assay in human RPE cells after treatment with TBHP and compounds DH381-2 and DH421.

Human RPE cells [2] = assay: Mitochondrial function after TBHP (oxygen consumption rate, Seahorse XF analyzer); conditions: FIGS. 9A-9B, 1 μM compound preincubated 18 hours, then 300 μM TBHP 24 hours; for ATP production compared to TBHP-treated group: p<0.001
Experimental: Human RPE cells were preincubated with 1 μM of compound DH381-2 and DH421 for 18 hours and then treated with 300 μM tert-butyl hydroperoxide (TBHP) for 24 hours. Oxygen consumption rate (OCR) was determined by Seahorse XF analyzer to measure mitochondrial function.

Human ARPE-19 cells [3] = assay: Cell viability on nitrite-modified extracellular matrix (ECM); conditions: FIG. 5, 1 μM, 3 μM, and 10 μM compound, seeded onto nitrite-modified ECM for 24 hours
Experimental: Immortalized human RPE (ARPE-19) cells were obtained from the ATCC, cultured, and maintained in DMEM (Invitrogen-Gibco, Life Technologies) containing 10% FBS, 100 IU/mL penicillin, 100 μg/mL streptomycin, and 100 μg/mL gentamicin (Invitrogen-Gibco, Life Technologies). These cells were incubated in a humidified atmosphere of 5% CO2 and 95% air at 37° C. ARPE-19 cells were grown on 24-well Transwell® permeable supports (Corning, Inc.) in 12-well plates or flat bottom 24-well plates for 6-8 weeks to allow the ECM to form. ARPE-19 cells were then removed by the addition of 20 mM ammonium hydroxide buffer for 20 min, and the ECM was washed with phosphate buffered saline (PBS). PBS was removed from the RPE-ECM plates and dried. Subsequently, 100 mM sodium nitrite was added to the ECM and incubated at 37° C. for 7 days. Plates were then washed with PBS and incubated with PBS for 4 hours. Finally, plates were washed with PBS to completely remove the nitrite. Cells are preincubated with drug for 24 hours and then seeded on nitrite-modified ECM for 24 hours. Cell viability was measured using RealTime-Glo MT assays (Promega) with a BioTek FLx800 fluorescence reader (Bio Tek, Winooski, VT). […]

Human RPE cells [4] = assay: TBHP oxidative stress-induced cell death, cell viability; conditions: FIG. 6, 0.6 μM compound preincubated 24 hours, then 300 μM TBHP 24 hours, p<0.0001
Experimental: (§1) Human RPE cells were preincubated with 0.6 μM of compound DH421 or DH381-2 for 24 hours and then exposed to 300 μM tert-butyl hydroperoxide (TBHP) to induce cell death for 24 hours. Protective effects on human RPE cells treated with DH421 and DH381-2. **** p<0.0001.

Human RPE cells [5] = assay: Blue light damage, cell viability; conditions: FIG. 7, 0.6 μM compound preincubated 24 hours, then blue light 156.7 LUX for 36 hours
Experimental: Human RPE cells were preincubated with 0.6 μM of compound DH421 or DH381-2 for 24 hours and then exposed to blue light (156.7 LUX for 36 hours). Protective effect of compound DH421 or DH381-2 on human RPE cells exposed to blue light (156.7 LUX for 36 hours). * p<0.05, *** p<0.01.

Human ARPE-19 cells [6] = assay: Blue light damage, cell viability (RealTime-Glo MT); conditions: FIG. 4, 0.6 μM compound preincubated 24 hours, then blue light 156.7 LUX for 36 hours
Experimental: Human ARPE-19 cells were plated in 96-well plates for 24 hours in DMEM supplemented with FBS and antibiotics. The cells were preincubated with drug for 24 hours and then exposed to blue light (156.7 LUX for 36 hours). Cell viability was measured after 36 hours of blue light exposure using RealTime-Glo MT assays (Promega) with a BioTek FLx800 fluorescence reader (Bio Tek, Winooski, VT).
Human ARPE-19 cells (CRL-2302; American Type Culture Collection) were preincubated with 0.6 μM of compound DH421 or DH381-2 for 24 hours and then exposed to blue light (156.7 LUX for 36 hours). Protective effect of compound DH421 or DH381-2 on human ARPE-19 cells exposed to blue light (156.7 LUX for 36 hours). * p<0.05, *** p<0.01.

Human ARPE-19 cells [7] = assay: TBHP oxidative stress-induced cell death, cell viability (RealTime-Glo MT); conditions: for cell viability after exposure to TBHP / protection from oxidative stress-induced cell death: p<0.0001; for protection from oxidative stress-induced cell death: FIG. 3, 0.6 μM compound preincubated 24 hours
Experimental: Immortalized human RPE cells (ARPE-19) obtained from the American Type Culture Collection (ATCC, Manassas, VA, USA) were cultured in Dulbecco's modified Eagle's medium (DMEM; Thermo Fisher Scientific, Waltham, MA) containing 10% fetal bovine serum (FBS), 100 IU/mL penicillin, 100 μg/mL streptomycin, 100 μg/mL gentamicin, and 2.5 μg/mL amphotericin B (Thermo Fisher Scientific).
Human ARPE-19 cells were plated in 96-well plates for 24 hours in DMEM supplemented with FBS and antibiotics. ARPE-19 cells were preincubated with either ciclopirox olamine (Sigma), compound 414 (Chemical Diversity, San Diego, CA), compound 434 (Chemical Diversity) or no compound for 24 hours and then exposed to varying concentrations of tert-butyl hydroperoxide (TBHP; Sigma-Aldrich, St. Louis, MO) the next day for 24 hours. Cell viability was measured the following day by RealTime-Glo™ MT cell viability assay (Promega, Madison, WI) using a BioTek FLx800™ fluorescence reader (BioTek, Winooski, VT).
Human ARPE-19 cells (CRL-2302; American Type Culture Collection) were preincubated with 0.9 μM of DH381-2 and DH421 for 24 hours and then exposed to 300 μM tert-butyl hydroperoxide (TBHP) to induce cell death for 24 hours.
Human ARPE-19 cells (CRL-2302; American Type Culture Collection) were preincubated with 0.9 μM of DH421 for 24 hours and then exposed to 250 μM tert-butyl hydroperoxide (TBHP) to induce cell death for 24 hours.
as §1, with “ARPE-19” for “RPE”, “(CRL-2302; American Type Culture Collection) with” for “were”

Human RPE cells [8] = assay: Cell viability on nitrite-modified extracellular matrix (ECM); conditions: FIG. 8, 1 μM compound, seeded onto nitrite-modified ECM for 24 hours, p<0.05
Experimental: Human RPE cells were treated with 1 μM of compound DH421 or DH381-2 and then seeded onto nitrite-modified ECM and untreated (normal) ECM for 24 hours. Protective effects of compound DH421 or DH381-2 on RPE cells seeded onto nitrite-modified ECM. *p<0.05.

[9] = FIG. 1, 0.9 μM compound preincubated 24 hours, then 300 μM TBHP 24 hours

Compound	cytotoxicity level (Human RPE cells [1])	mitochondrial function (oxygen consumption rate) after oxidative stress (Human RPE cells [2])	ATP production compared to TBHP-treated group (Human RPE cells [2])	cell viability on nitrite-modified ECM (Human ARPE-19 cells [3])	protection from oxidative stress-induced cell death (Human RPE cells [4])	protection from blue light damage (Human RPE cells [5])	protection from blue light damage (Human ARPE-19 cells [6])	cell viability after exposure to TBHP (Human ARPE-19 cells [7]; [9])	protection from oxidative stress-induced cell death (Human ARPE-19 cells [7]; then 300 μM TBHP 24 hours)	cell viability on nitrite-modified ECM (Human RPE cells [8])	effect on cell growth suppression (Human ARPE-19 cells [7]; FIG. 2, 0.9 μM compound)	cell viability after exposure to TBHP (Human ARPE-19 cells [7]; FIG. 2, 0.9 μM compound preincubated 24 hours, then 250 μM TBHP 24 hours)
Oc1ccc(Br)cc1-c1nc2ncccn2c1Nc1ccccn1 [DH381-2, 4-bromo-2-(3-(pyridin-2-ylamino)imidazo[1,2-a]pyrimidin-2-yl)phenol]	not affected	improved mitochondrial function	increased ATP production	enhanced	protected	protected	protected	significantly increased cell viability	protected	enhanced	–	–
CCc1cccc(C)c1Nc1c(-c2cc(Br)ccc2O)nc2ccccn12 [DH421, 4-bromo-2-(3-((2-ethyl-6-methylphenyl)amino)imidazo[1,2-a]pyridin-2-yl)phenol]	not affected	improved mitochondrial function	increased ATP production	enhanced	protected	protected	protected	significantly increased cell viability	protected	enhanced	no effect on cell growth suppression	significantly increased cell viability
